The record followed here is patent publication US20140228349A1, “5,7-SUBSTITUTED-IMIDAZO[1,2-C]PYRIMIDINES” (Array BioPharma Inc., priority 2011, published 2014).

Type in all cases: biochemical
One experiment deals with T1, Human Tyk2 kinase domain (Homo sapiens, UniProt P29597).
T1 construct: comprising amino acids 886 to 1187; His10 (10 histidine residues) (C, cleaved yes); made in house
T1 sequence (P29597 886-1187): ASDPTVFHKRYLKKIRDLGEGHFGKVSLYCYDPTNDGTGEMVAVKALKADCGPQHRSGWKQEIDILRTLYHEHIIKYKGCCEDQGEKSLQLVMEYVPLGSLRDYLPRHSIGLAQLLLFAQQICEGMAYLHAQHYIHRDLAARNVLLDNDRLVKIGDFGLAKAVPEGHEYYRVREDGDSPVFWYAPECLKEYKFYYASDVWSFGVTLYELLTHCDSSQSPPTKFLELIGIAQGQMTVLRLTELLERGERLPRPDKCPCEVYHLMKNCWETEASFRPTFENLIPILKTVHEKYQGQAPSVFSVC
As to the kind of experiment: Tyk2 Inhibition Assay (Omnia kinase fluorescence peptide substrate). The settings on record: averaged IC50 ranges; 10 μM (Km app) or 1 mM ATP, 2 nM Tyk2. The text has this: (§1) The assays described in Examples A, B, C and D for the determination of Tyk2, JAK1, JAK2 and JAK3 kinase activity, respectively, utilized the Omnia® Kinase fluorescence peptide substrate-based technology (Invitrogen). The specific components of the assay mixture are described in Examples A, B, C and D. In these assays, Mg^2+ is chelated upon phosphorylation of the Omnia peptide by the kinase to form a bridge between the chelation-enhanced fluorophore Sox and the phosphate, resulting in an increase in fluorescence emission at 485 nm when excited at […]. The reactions were therefore read at excitation 360 nm and emission was measured at 485 nm every 50 seconds for 45 minutes using a PerkinElmer EnVision Multilabel Plate Reader.
(§2) The final buffer conditions for Tyk2, JAK1, JAK2, and JAK3 assays were as follows: 25 mM HEPES, pH 7.4, 10 mM MgCl2, 0.01% Triton X-100 and 1 mM DTT.
(§3) Compounds were prepared at 50× the final concentration in DMSO by conducting 3-fold serial dilutions from a 500-μM intermediate dilution to give a 10-point dosing curve having a high dose of 10 μM. Two-μL aliquots of these were transferred to a fresh plate for a ten-fold intermediate dilution with assay buffer. Five-μL aliquots of the diluted compounds were then transferred to 20-μL of assay mixtures described in Examples A, B, C and D for a final concentration of DMSO of 2%. A standard or reference compound was typically included on each assay plate to validate that plate. For each plate, percent of control (POC) values were calculated for each well according to the following equation: […]
(§4) IC50's were estimated from the POC's using a standard 4-parameter logistic model:
(§5) The IC50 is defined as the concentration of inhibitor at which the POC equals 50 for the fitted curve.
Compounds of Formula I were screened for their ability to inhibit Tyk2 using the general enzyme inhibition assay method, in which the assay mixture contained 10 μM (Km app) or 1 mM ATP, 8 μM Omnia® Y12 peptide (Catalog #IVGN KPZ3121C; Invitrogen Corporation, Carlsbad, Calif.) and 2 nM Tyk2 in a total volume of 20 μL. Human Tyk2 kinase domain, comprising amino acids 886 to 1187 with 10 additional histidine residues (histidine tag) on the carboxy terminus, was expressed and purified from bacculovirus in-house at Array BioPharma Inc. (Boulder, Colo.). The histidine tag was cleaved after purification using standard conditions.

For a further experiment, the target named is T2, JAK1 (Homo sapiens, UniProt P23458).
T2 construct: purchased Invitrogen Corporation, Carlsbad, Calif; IVGN PV4775
As to the kind of experiment: JAK1 Inhibition Assay (Omnia kinase fluorescence peptide substrate). Particulars: averaged IC50 ranges; 40 μM (Km app) or 1 mM ATP, 15 nM JAK1.
Source text: as §1, §2, §3, §4, §5
Compounds of Formula I were screened for their ability to inhibit JAK1 using the general enzyme inhibition assay method, in which the assay mixture contained 40 μM (Km app) or 1 mM ATP, 8 μM Omnia® Y12 peptide (Catalog #IVGN KPZ3121C; Invitrogen Corporation, Carlsbad, Calif.) and 15 nM JAK1 in a total volume of 20 μL. JAK1 was purchased from Invitrogen Corporation, Carlsbad, Calif. (catalog #IVGN PV4775).

In a further experiment the target is T3, JAK2 (Homo sapiens, UniProt O60674).
T3 construct: purchased Invitrogen Corporation, Carlsbad, Calif; IVGN PV4288
Briefly: JAK2 Inhibition Assay (Omnia kinase fluorescence peptide substrate). Particulars: averaged IC50 ranges; 25 μM (Km app) or 1 mM ATP, 5 nM JAK2.
Source text: as §1, §2, §3, §4, §5
Compounds of Formula I were screened for their ability to inhibit JAK2 using the general enzyme inhibition assay method, in which the assay mixture contained 25 μM (Km app) or 1 mM ATP, 10 μM Omnia® Y7 peptide (Catalog #IVGN KNZ3071C, Invitrogen Corporation, Carlsbad, Calif.) and 5 nM JAK2 in a total volume of 20 μL. JAK2 was purchased from Invitrogen Corporation, Carlsbad, Calif. (catalog #IVGN PV4288).

A further experiment has as its target T4, JAK3 (Homo sapiens, UniProt P52333).
T4 construct: purchased Invitrogen Corporation, Carlsbad, Calif; IVGN PV4080
T4 sequence (P52333 1-1124): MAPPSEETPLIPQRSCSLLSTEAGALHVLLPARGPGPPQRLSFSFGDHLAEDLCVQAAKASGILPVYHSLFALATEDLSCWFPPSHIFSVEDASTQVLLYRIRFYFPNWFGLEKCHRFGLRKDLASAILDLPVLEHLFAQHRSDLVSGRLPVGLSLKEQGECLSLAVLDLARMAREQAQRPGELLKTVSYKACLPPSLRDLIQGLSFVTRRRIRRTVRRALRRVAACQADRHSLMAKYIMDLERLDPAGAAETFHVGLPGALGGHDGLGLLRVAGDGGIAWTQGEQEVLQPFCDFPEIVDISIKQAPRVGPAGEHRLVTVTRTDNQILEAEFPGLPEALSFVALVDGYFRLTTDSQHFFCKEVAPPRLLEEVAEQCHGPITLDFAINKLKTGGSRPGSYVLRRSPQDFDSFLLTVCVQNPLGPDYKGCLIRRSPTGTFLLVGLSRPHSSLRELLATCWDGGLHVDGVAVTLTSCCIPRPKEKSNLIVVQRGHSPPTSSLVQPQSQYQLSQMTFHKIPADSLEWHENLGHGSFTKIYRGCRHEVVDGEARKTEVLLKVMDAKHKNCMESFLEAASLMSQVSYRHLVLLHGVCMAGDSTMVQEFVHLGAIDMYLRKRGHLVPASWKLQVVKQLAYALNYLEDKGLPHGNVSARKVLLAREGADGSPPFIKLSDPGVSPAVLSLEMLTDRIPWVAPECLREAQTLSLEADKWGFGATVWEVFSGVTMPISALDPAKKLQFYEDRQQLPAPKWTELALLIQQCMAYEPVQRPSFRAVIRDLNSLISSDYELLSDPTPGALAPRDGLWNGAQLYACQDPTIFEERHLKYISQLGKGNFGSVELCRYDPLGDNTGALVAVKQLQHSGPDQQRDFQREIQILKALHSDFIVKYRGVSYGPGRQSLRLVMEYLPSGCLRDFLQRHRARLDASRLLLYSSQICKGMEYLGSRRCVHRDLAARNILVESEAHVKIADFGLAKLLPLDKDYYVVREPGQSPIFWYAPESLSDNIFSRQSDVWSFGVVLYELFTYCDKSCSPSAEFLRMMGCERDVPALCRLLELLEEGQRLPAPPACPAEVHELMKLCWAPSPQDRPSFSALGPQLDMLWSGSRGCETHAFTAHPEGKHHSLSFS
Briefly: JAK3 Inhibition Assay (Omnia kinase fluorescence peptide substrate). The settings on record: averaged IC50 ranges; 10 μM (Km app) or 1 mM ATP, 2.5 nM JAK3.
Source text: as §1, §2, §3, §4, §5
Compounds of Formula I were screened for their ability to inhibit JAK3 using the general enzyme inhibition assay method, in which the assay mixture contained 10 μM (Km app) or 1 mM ATP, 10 μM Omnia® Y7 peptide (Catalog #IVGN KNZ3071C, Invitrogen Corporation, Carlsbad, Calif.) and 2.5 nM JAK3 in a total volume of 20 μL. JAK3 was purchased from Invitrogen Corporation, Carlsbad, Calif. (catalog #IVGN PV4080).

A value given as a limit tells only on which side of the number the result lay.

T3 sequence (O60674 whole entry): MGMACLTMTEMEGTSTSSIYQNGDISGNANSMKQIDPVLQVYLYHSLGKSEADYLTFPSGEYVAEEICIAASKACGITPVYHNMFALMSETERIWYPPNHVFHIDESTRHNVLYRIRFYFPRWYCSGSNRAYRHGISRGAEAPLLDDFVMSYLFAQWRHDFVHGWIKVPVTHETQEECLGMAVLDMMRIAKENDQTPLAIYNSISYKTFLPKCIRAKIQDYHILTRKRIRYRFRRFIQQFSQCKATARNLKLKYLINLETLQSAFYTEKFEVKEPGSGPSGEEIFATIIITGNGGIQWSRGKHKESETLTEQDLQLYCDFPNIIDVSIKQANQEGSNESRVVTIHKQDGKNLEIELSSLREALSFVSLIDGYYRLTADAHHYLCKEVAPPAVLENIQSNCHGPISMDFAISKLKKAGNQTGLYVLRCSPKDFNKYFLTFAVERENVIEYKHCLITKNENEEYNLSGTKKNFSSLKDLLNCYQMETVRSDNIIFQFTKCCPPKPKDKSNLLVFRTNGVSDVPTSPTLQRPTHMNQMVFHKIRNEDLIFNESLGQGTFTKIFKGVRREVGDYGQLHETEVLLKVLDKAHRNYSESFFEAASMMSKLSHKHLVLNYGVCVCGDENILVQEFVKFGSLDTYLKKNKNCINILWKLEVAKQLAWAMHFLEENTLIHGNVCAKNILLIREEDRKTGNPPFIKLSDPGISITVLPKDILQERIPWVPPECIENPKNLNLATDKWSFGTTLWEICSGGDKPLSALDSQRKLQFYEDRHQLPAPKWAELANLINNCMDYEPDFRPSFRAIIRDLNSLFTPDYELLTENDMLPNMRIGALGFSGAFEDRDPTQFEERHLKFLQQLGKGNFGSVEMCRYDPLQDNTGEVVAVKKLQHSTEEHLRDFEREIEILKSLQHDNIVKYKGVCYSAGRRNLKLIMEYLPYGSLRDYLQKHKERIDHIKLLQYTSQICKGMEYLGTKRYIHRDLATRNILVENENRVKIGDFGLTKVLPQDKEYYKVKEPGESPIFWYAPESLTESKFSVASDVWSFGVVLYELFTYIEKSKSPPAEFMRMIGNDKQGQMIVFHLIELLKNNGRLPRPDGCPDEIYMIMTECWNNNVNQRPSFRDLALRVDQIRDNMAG
T2 sequence (P23458 whole entry): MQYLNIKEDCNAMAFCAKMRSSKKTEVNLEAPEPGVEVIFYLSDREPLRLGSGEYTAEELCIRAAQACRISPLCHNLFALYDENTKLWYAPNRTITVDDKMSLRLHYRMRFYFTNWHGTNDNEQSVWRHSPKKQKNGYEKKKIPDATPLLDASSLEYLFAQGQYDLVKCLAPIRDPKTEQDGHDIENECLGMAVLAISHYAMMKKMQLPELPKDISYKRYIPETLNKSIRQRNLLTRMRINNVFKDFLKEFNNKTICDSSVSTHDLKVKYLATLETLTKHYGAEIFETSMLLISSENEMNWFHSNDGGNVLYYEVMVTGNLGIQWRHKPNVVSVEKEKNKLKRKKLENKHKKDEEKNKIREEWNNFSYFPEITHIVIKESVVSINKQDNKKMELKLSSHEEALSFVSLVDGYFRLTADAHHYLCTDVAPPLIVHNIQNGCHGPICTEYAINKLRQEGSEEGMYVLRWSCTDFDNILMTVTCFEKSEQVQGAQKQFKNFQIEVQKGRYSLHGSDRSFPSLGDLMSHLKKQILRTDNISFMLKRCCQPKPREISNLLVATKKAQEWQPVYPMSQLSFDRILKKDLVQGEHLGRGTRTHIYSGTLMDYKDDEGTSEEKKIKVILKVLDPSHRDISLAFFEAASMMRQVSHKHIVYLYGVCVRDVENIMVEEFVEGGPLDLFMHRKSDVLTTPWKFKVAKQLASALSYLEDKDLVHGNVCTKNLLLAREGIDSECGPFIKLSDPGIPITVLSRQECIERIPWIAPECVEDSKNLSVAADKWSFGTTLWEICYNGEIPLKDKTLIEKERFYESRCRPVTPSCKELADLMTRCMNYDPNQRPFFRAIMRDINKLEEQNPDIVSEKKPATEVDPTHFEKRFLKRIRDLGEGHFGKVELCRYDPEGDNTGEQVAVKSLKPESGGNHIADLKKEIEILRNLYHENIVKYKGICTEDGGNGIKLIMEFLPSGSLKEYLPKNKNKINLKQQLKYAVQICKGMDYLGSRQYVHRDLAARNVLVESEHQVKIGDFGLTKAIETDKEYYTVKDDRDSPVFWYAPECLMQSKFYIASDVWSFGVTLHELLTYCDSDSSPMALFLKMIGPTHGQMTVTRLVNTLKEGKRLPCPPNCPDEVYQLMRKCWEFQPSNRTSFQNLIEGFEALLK

For `Cn1cc(-c2cc3nccn3c(-c3ccn(C4(CCF)CN(CC#N)C4)c3)n2)cn1` [Example 22, 2-(3-(2-fluoroethyl)-3-(3-(7-(1-methyl-1H-pyrazol-4-yl)imidazo[1,2-c]pyrimidin-5-yl)-1H-pyrrol-1-yl)azetidin-1-yl)acetonitrile], the IC50 against Human Tyk2 kinase domain was 10 to 100 nM; at JAK1, 100 to 1000 nM; against JAK2 it was 100 to 1000 nM; against JAK3, 100 to 1000 nM.
Regarding `Cn1cc(-c2cc3nccn3c(-c3ccn([C@H](CCF)[C@H]4CC4(F)F)c3)n2)cn1` [Example 23, 5-(1-((R)-1-((R)-2,2-difluorocyclopropyl)-3-fluoropropyl)-1H-pyrrol-3-yl)-7-(1-methyl-1H-pyrazol-4-yl)imidazo[1,2-c]pyrimidine], the IC50 is below 10 nM on Human Tyk2 kinase domain, 10 to 100 nM on JAK1, 10 to 100 nM against JAK2 and 10 to 100 nM against JAK3.
As for `Cn1cc(-c2cc3nccn3c(-c3ccn([C@@H](CCF)[C@@H]4CC4(F)F)c3)n2)cn1` [Example 24, 5-(1-((S)-1-((S)-2,2-difluorocyclopropyl)-3-fluoropropyl)-1H-pyrrol-3-yl)-7-(1-methyl-1H-pyrazol-4-yl)imidazo[1,2-c]pyrimidine], the half-maximal inhibitory concentration (IC50) against Human Tyk2 kinase domain is below 10 nM; at JAK1, 10 to 100 nM; at JAK2 it was 10 to 100 nM; at JAK3, 100 to 1000 nM.
For `Cn1cc(-c2cc3nccn3c(-c3ccn(C(CCF)C4CC4)c3)n2)cn1` (centres unmarked) [Example 25, 5-(1-(1-cyclopropyl-3-fluoropropyl)-1H-pyrrol-3-yl)-7-(1-methyl-1H-pyrazol-4-yl)imidazo[1,2-c]pyrimidine], the half-inhibitory concentration (IC50) at Human Tyk2 kinase domain is below 10 nM; at JAK1, 10 to 100 nM; against JAK2, 10 to 100 nM; against JAK3 it was 10 to 100 nM.
Consider `Cn1cc(-c2cc3nccn3c(-c3ccn(C4(CCF)CN(S(=O)(=O)C(F)(F)F)C4)c3)n2)cn1` [Example 26, 5-(1-(3-(2-fluoroethyl)-1-((trifluoromethyl)sulfonyl)azetidin-3-yl)-1H-pyrrol-3-yl)-7-(1-methyl-1H-pyrazol-4-yl)imidazo[1,2-c]pyrimidine], for which the IC50 on Human Tyk2 kinase domain is below 10 nM; against JAK1, 10 to 100 nM; against JAK2 it was 10 to 100 nM; on JAK3, 10 to 100 nM.
Consider `C=CC1(n2ccc(-c3nc(-c4cnn(C)c4)cc4nccn34)c2)CN(S(=O)(=O)C(F)(F)F)C1` [Example 27, 7-(1-methyl-1H-pyrazol-4-yl)-5-(1-(1-((trifluoromethyl)sulfonyl)-3-vinylazetidin-3-yl)-1H-pyrrol-3-yl)imidazo[1,2-c]pyrimidine], for which the IC50 was below 10 nM at Human Tyk2 kinase domain, 10 to 100 nM against JAK1, 10 to 100 nM at JAK2 and 10 to 100 nM against JAK3.
`Cn1cc(-c2cc3nccn3c(-c3ccn([C@H](CCF)[C@@H]4CC4(F)F)c3)n2)cn1` [Example 28, 5-(1-((R)-1-((S)-2,2-difluorocyclopropyl)-3-fluoropropyl)-1H-pyrrol-3-yl)-7-(1-methyl-1H-pyrazol-4-yl)imidazo[1,2-c]pyrimidine]: the IC50 lay within 10 to 100 nM at Human Tyk2 kinase domain, 100 to 1000 nM at JAK1, 10 to 100 nM on JAK2 and 100 to 1000 nM against JAK3.
As for `Cn1cc(-c2cc3nccn3c(-c3cnn(C(CCCF)C4CC4)c3)n2)cn1` (centres unmarked) [Example 30, 5-(1-(1-cyclopropyl-4-fluorobutyl)-1H-pyrazol-4-yl)-7-(1-methyl-1H-pyrazol-4-yl)imidazo[1,2-c]pyrimidine], the half-inhibitory concentration (IC50) at Human Tyk2 kinase domain was 10 to 100 nM; against JAK1, 100 to 1000 nM; against JAK2, 10 to 100 nM; against JAK3, 100 to 1000 nM.
With `COCCC(C1CC1(F)F)n1cc(-c2nc(-c3cnn(C)c3)cc3nccn23)cn1` (centres unmarked) [Example 31], the IC50 at Human Tyk2 kinase domain, at JAK1, on JAK2 and against JAK3 was 100 to 1000 nM each time.
For the molecule `Cn1cc(-c2cc3nccn3c(-c3cnn(C4(CC=C(F)F)CN(S(=O)(=O)C(F)(F)F)C4)c3)n2)cn1` [Example 32, 5-(1-(3-(3,3-difluoroallyl)-1-((trifluoromethyl)sulfonyl)azetidin-3-yl)-1H-pyrazol-4-yl)-7-(1-methyl-1H-pyrazol-4-yl)imidazo[1,2-c]pyrimidine], the IC50 is below 10 nM against Human Tyk2 kinase domain, below 10 nM against JAK1, below 10 nM at JAK2 and 10 to 100 nM against JAK3.
Regarding `CCOCCC1(n2cc(-c3nc(-c4cnn(C)c4)cc4nccn34)cn2)CN(S(=O)(=O)C(F)(F)F)C1` [Example 33, 5-(1-(3-(2-ethoxyethyl)-1-((trifluoromethyl)sulfonyl)azetidin-3-yl)-1H-pyrazol-4-yl)-7-(1-methyl-1H-pyrazol-4-yl)imidazo[1,2-c]pyrimidine], the IC50 at Human Tyk2 kinase domain was 10 to 100 nM; against JAK1 it was 10 to 100 nM; on JAK2, 10 to 100 nM; against JAK3, 100 to 1000 nM.

In general, IC50 refers to the midpoint of a concentration-inhibition curve. Read a low IC50 as inhibition by little substance.
